# Laboratory results from patent US12186283B2, “Bismuth-thiol compositions and methods of use” (Microbion Corporation, priority 2018, dated 2025).
# Values joined by “and” are separate entries in the source; they are usually repeats but may differ in a detail not shown here. Identical values can stand only once. Like-named read-outs stand apart in the source and are kept apart here.
# Assays:
# [1] = Hematology after face-mask inhalation in beagle dogs; assay type: in vivo; conditions: inhalation Day 0 and 7, animal and Avg lines, samplings not labelled
# Description: The objective of the study is to determine the maximum tolerated dose (MTD) or maximum feasible dose (MFD) of inhaled bismuth ethanedithiol (BisEDT) after face-mask inhalation exposure (up to 60 min of exposure) in male and female beagle dogs. Animals will be monitored for up to 14 days following the first day of exposure and blood will be collected at predetermined timepoints to analyze the pharmacokinetics of BisEDT. In addition, a coagulation panel will be conducted prior to necropsy. At the conclusion of the study animals will be euthanized and undergo necropsy during which the respiratory tract will be harvested for bioanalytical and histopathological analysis. Results obtained will inform a follow up repeated dose GLP study. This test article is currently being developed as a novel formulation of a broad spectrum antimicrobial/antibiofilm agent, indicated for the treatment of lung infections in patients with cystic fibrosis.
# Once adequately conditioned to the restraint device and face-masks, the animals are individually exposed to the test article aerosols. Animals receive a single face-mask inhalation exposure in a ramp study design to test article aerosols for up to 60 min. Animal observations during and post exposure determine the tolerance of inhaled BisEDT aerosols.
# Group 1 (vehicle) are exposed to a vehicle atmosphere for 30 minutes. Group 2 (50 μg/kg) are exposed to BisEDT for 30 minutes. Target concentrations and exposure durations for Groups 3-5 are based on the presence of any toxicity via clinical observations or gross necropsy findings. In each of Groups 3-5, if no adverse clinical signs of toxicity are observed, the next groups' exposure will be conducted at a higher target dose. If adverse clinical signs of toxicity are observed, the next groups' exposure will be conducted at a lower target dose. This approach is repeated for all BisEDT doses. The final documented exposure duration is the maximum tolerated dose or the maximum feasible dose.
# Blood are collected for pharmacokinetic (PK) analysis prior to exposure, then at 4 hr (±5 min) post exposure, and again on Day 1, Day 2, Day 7 (pre- and 4 hr (±5 min)-post exposure), Day 8, Day 9, Day 10, Day 11, Day 12, Day 13, and Day 14. A total of 0.25 mL is collected at each timepoint. No PK blood is collected from the vehicle control (Group 1) animals; only animals exposed to BisEDT have blood collected for PK analysis. Collected samples are flash frozen without processing for shipment to Medpace for bioanalytical analysis. Additional blood is collected from all animals in all groups for hematology (1 mL) and clinical chemistry (1 mL) at baseline, Day 7 (pre-exposure), and again at euthanasia. Blood (2-2 mL) is collected from all animals at necropsy for coagulation analysis (d-Dimer, fibrinogen, PT, and PTT).
# For hematology analyses, whole blood (1 ml) will be collected with vacutainers containing K3EDTA as an anticoagulant.
# Hematology samples are analyzed by automated (ADVIA™ 120 Hematology System, Siemens Medical Solutions Diagnostics, Tarrytown, NY) analyses. Disposition will be recorded on the sample processing form.
# [2] = tested on: S. aureus ATCC 29213; conditions: S. aureus ATCC 29213, QC organism; cited from earlier work
# [3] = Rat single-dose PK: lung tissue BisEDT; conditions: for concentration at 24 h / concentration at 96 h: F344, rat, inhaled, 100 μg/kg
# [4] = tested on: Burkholderia spp. (B. cepacia complex); assay: MIC against CF isolates (Example 5); assay type: cell-based; conditions: Table 4A; strain AU197, B. cenocepacia (B cepacia complex)
# [5] = tested on: Enterobacteriaceae; assay: Broth microdilution MIC (Example 11), group statement; assay type: cell-based; conditions: ATCC QC E. coli, ESBL-, KPC- and NDM-1-positive isolates
# [6] = tested on: Pseudomonas aeruginosa; assay: Broth microdilution MIC (Example 11); assay type: cell-based; conditions: P. aeruginosa MMX 103 (ATCC 27853); QC
# [7] = tested on: Candida krusei; assay: Broth microdilution MIC, yeast (Example 13); assay type: cell-based; conditions: for MIC: Pichia kudriavzevii
# [8] = dogs Group 2 (target 50 μg/kg; lung deposited 55-56 ug/kg)
smiles,measurement,setting,value
"C1C[S][Bi]([S]CC[S][Bi]2[S]CC[S]2)[S]1 [BisEDT, bismuth-1,2-ethanedithiol]",HGB,[1]; [8],15.6 g/dL and 15.0 g/dL and 14.2 g/dL and 16.4 g/dL and 14.3 g/dL
same,LUC,[1]; [8],0.01 ^3/uL and 0.02 ^3/uL
same,MCH,[1]; [8],22.8 pg and 23.2 pg and 22.7 pg and 22.3 pg and 21.9 pg
same,MCHC,[1]; [8],34.1 g/dL and 34.9 g/dL and 33.4 g/dL and 34.4 g/dL and 33.2 g/dL
same,MONO,[1]; [8],0.63 ^3/uL and 0.67 ^3/uL and 0.53 ^3/uL and 0.50 ^3/uL and 0.51 ^3/uL
same,LUC,[1]; dogs Group 4 (lung deposited 176-197 ug/kg),0.01 ^3/uL and 0.02 ^3/uL
same,"MIC, QC range",[2],(0.12-1) μg/mL
same,concentration at 24 h,[3]; lung fluid,123 µg/mL
same,concentration at 96 h,[3]; lung fluid,78 µg/mL
same,concentration at 24 h,[3]; lung tissue,4090 ng/g
same,concentration at 96 h,[3]; lung tissue,2600 ng/g
same,half-life of lung levels,"[3]; rat, IV dosing",about 24 hour
same,lung levels relative to inhalation group,"[3]; rat, IV dosing 100 μg/kg",< 5%
same,lung levels,"[3]; rat, oral dosing 250 μg/kg",no lung levels
same,lung tissue half-life,"[3]; rat, single inhalation dose (100 μg/kg lung deposited)",about 4 days
same,"Mean BisEDT Conc, lung at sacrifice","[3]; rat, single inhaled dose 47 μg/kg, sac time 30 hr",4.8 ng/g
same,"Mean BisEDT Conc, lung at sacrifice","[3]; rat, single inhaled dose 124 μg/kg, sac time 30 hr",5.9 ng/g
same,"Mean BisEDT Conc, lung at sacrifice","[3]; rat, single inhaled dose 400 μg/kg, sac time 30 hr",12.1 ng/g
same,"Mean BisEDT Conc, lung at sacrifice","[3]; rat, single inhaled dose 3000 μg/kg, sac time 24 hr",82.3 ng/g
"CC(S)C(C)S.[Bi] (stereo not drawn) [BisBDT, bismuth-2,3-butanedithiol]",MIC,[4],4 µg/mL
same,MIC values (range across isolates),[5],0.5 to 2 µg/mL
same,MIC,[6],1 µg/mL
same,"MIC 24 hr, second value of the pair x/y","[7]; C. krusei ATCC 6258 (QC, Table 110), 24 hr, footnote b not given",1
same,"MIC 48 hr, second value of the pair x/y","[7]; C. krusei ATCC 6258 (QC, Table 110), 48 hr, footnote b not given",4
same,"MIC 48 hr, first value of the pair x/y","[7]; C. krusei ATCC 6258 (QC, Table 110), 48 hr, footnote b not given, probably MIC2",1
same,MIC,[7]; read-out: MIC2 (50% inhibition),0.5 µg/mL
same,MIC,"[7]; read-out: MIC2 (50% inhibition), C. krusei MMX 7125, Susceptible",0.5 µg/mL
same,MIC,"[7]; read-out: MIC2 (50% inhibition), C. krusei MMX 7155, Susceptible",0.5 µg/mL
same,MIC,"[7]; read-out: MIC2 (50% inhibition), C. krusei MMX 7563, Susceptible",0.5 µg/mL
same,MIC,"[7]; read-out: MIC2 (50% inhibition), C. krusei MMX 9878, MICA-I, VORI-I",0.5 µg/mL
